Source: EPA's ToxValDB 9.5 (doi:10.2903/j.efsa.2010.1913)

Key:
Aphidius rhopalosiphi = assay: LR50; higher = less toxic; conditions: not reported; mortality
Cyprinus carpio = conditions: acute; duration: 96 hours; mortality
Daphnia magna = conditions: chronic/long-term; duration: 21 days; reproduction
Canidae = conditions: oral, Dog Other, organ weight
Colinus virginianus = conditions: acute; oral; mortality
Tagia sp. = conditions: acute; duration: 14 days; mortality
Apis mellifera = conditions: acute; oral; unspecified; mortality
Mus musculus = conditions: oral
[1] = reproduction developmental, reproduction

CCNC(=O)[C@@H](C)OC(=O)Nc1ccccc1 [Carbetamide]
LR50 (Aphidius rhopalosiphi): > 3020 g/ha
LC50 (Cyprinus carpio): > 100 µg/mL
LD50 (Rattus norvegicus; acute, oral, mortality): > 2000 mg/kg-day
NOAEL (Rattus norvegicus; chronic, duration: 2 years, oral, histopathology: nonneoplastic): 6 mg/kg-day
NOAEL (Rattus norvegicus; [1]): 208 mg/kg-day
NOAEL (Rattus norvegicus; subchronic, duration: 90 days, oral, histopathology: nonneoplastic): 12.5 mg/kg-day
NOEC (Daphnia magna): 1 mg/L
NOAEL (Canidae; chronic, duration: 1 years): 30 mg/kg-day
NOAEL (Canidae; subchronic, duration: 90 days): 30 mg/kg-day
LD50 (Colinus virginianus): > 2000 mg/kg-day
LC50 (Oncorhynchus mykiss; acute, duration: 96 hours, mortality): > 100 µg/mL
NOEC (Oncorhynchus mykiss; chronic/long-term, duration: 21 days, growth): > 100 mg/L
LC50 (Tagia sp.): 660 mg/kg
LC50 (Coturnix japonica; acute, oral, diet, mortality): > 1040 mg/kg-day
NOEC (Coturnix japonica; [1]): 169 mg/kg-day
LD50 (Apis mellifera): > 63.2 µg/piece
LD50 (Mus musculus; acute, mortality): 1720 mg/kg-day
NOEL (Mus musculus; chronic, duration: 104 weeks, histopathology: neoplastic): 21 mg/kg-day
